Columns and labels:
Normal fibroblasts = assay: Cell spreading assay after a predetermined time-point (cell area); assay type: cell-based, Human; conditions: 30 min after seeding on fibronectin
Procedure: (§1) Human dermal fibroblasts (12 h after seeding) were treated with the indicated drug (or vehicle) in 0.1% serum for the indicated time. After drug treatment, the cells were lifted with 20 mM EDTA (ethylenediaminetetraacetic acid) in PBS (phosphate-buffered saline), pelleted at 300×g for 5 min and resuspended in 1% serum in the presence of drug or vehicle. Cell suspensions were then set in a rotator for 1 hour before seeding them on fibronectin-coated coverslips for 30 min, undisturbed, to allow attachment and spreading. After spreading, coverslips were gently rinsed with PBS and fixed in 4% formaldehyde for 10 min at room temperature. Cells were stained with rhodamine—phalloidin and imaged by epifluorescence microscopy. At least 50 cells were quantified per experiment by tracing and measuring cell areas by using the magic wand tool in ImageJ software (National Institutes of Health (NIH), Bethesda, MD, USA).
(§2) Cell spreading on fibronectin-coated surfaces of cells treated with RhoA modulators in comparison to untreated cells was observed. Cells were fixed and stained with fluorescently labeled-phalloidin after 30 min spreading time at 37° C. Following imaging, cell area measurements were performed.

normal cells = assay: Cell adhesion by time-lapse microscopy; assay type: cell-based, Human
Procedure: Human dermal fibroblasts were treated as described above, seeded on fibronectin-coated LabTek chambers, and allowed to attach and spread. Cells were imaged at intervals of 10 min after seeding for 8 h using 20× objective in a Zeiss Axiovert inverted microscope. Number of detaching cells was quantified every 10 min up to the first hour by using the cell counter tool in ImageJ (NIH). To determine spreading kinetics, individual cells were tracked in each time lapse image and were scored from 1-5 based on general cell morphology. Briefly, cells that were just attached and looked circular with no protrusions or visible extensions received a score of 1. Cells with needle-like (filopodia) projections were scored 2, cells with lamellopodia-like extensions were scored 3, cells with more extended lamellopodia-like extensions and increased cell area were given a score of 4, and a further increase in cell area, often accompanied by isotropic spread morphology, was given a score of 5. Alternatively, cells were treated as described above and allowed to attach on fibronectin-coated dishes. Immediately after seeding, the cells were imaged with a 10× objective simultaneously using up to 3 Cytosmart Imaging Systems (Lonza, Basel, Switzerland) at intervals of 30 s for 2 h. Number of cells attached was quantified every 10 min up to the first hour using the Cell Counter tool in ImageJ software (NIH).

LS patient cells [1] = assay: Cell spreading assay after a predetermined time-point (cell area); assay type: cell-based, Human; conditions: for LS cell spreading phenotype: LS patient fibroblasts, 30 min after seeding on fibronectin
Procedure: Two approaches to monitor cell spreading were used: after a predetermined time-point and at multiple time points.
1) Spreading after a Predetermined Time-Point.
as §1, §2

mTOR pathway in LS cells = assay: Western blotting of PI3K/Akt/mTOR pathway; assay type: cell-based, Human
Procedure: Normal and LS cells were seeded on 100 mm plates and grown to 60-70% confluency in complete media. Then media was exchanged with 0.1% serum DMEM media with DMSO or 10 nM rapamycin for 12 hrs. The cells were washed twice with ice-cold PBS, collected by scraping cells in 200 μl/plate of lysis buffer (25 mM HEPES-KOH, pH7.4, 250 mM NaCl, 1% Triton-X-100 supplement with phosphatase and protease inhibitors), and lysed by passing the cells 10 times through a 26G1/2 needle. The lysates were centrifuged at 14,000×g for 20 min at 4° C., and the supernatant fractions were collected. The samples were analyzed by SDS-PAGE using 7% or 10% polyacrylamide gels and transferred to nitrocellulose membranes. The membranes were blocked with 5% skim milk in PBST (1× phosphate-buffered saline with Tween® detergent) and immunoblotted with the indicated primary and HRP-conjugated secondary antibodies.
The activation of the Akt and mTOR signaling pathways in LS cells treated or not with rapamycin was examined. Cell lysates were prepared, resolved by SDS-PAGE and the presence of phosphorylated and dephosphorylated key elements of the Akt and mTOR pathways were investigated by Western blotting with specific antibodies (FIG. 5D).

HK2 OCRL1 K.O. cells = assay: Indirect immunofluorescence for lysosomes (Lamp2, autolysosomes); assay type: cell-based, Human; conditions: rapamycin (10 nM) or WYE (1 μM)
Procedure: Following treatment with drugs, cells were washed and fixed with 4% formaldehyde-PBS for 10 min and immune-labeled for LAMP2 (lysosome-associated membrane protein 2). Random fields were imaged using a Zeiss Axiovert inverted microscope using a 40× objective with constant fluorescence exposure times.

LS patient cells [2] = assay: Ciliogenesis assay; assay type: cell-based, Human; conditions: serum starvation
Procedure: Cells were seeded on glass cover slips and grown for 24 h in complete media. Then media was replaced by 0.1% serum DMEM (starvation media) containing vehicle or the drug to induce ciliogenesis for the indicated times. Cells were then fixed in 4% formaldehyde—PBS for 10 min and immuno-labeled with anti-acetylated tubulin antibody (see Table 2). At least 50 cells were imaged for every experiment and experiments were repeated at least thrice. The fraction of cells displaying cilia and cilia length were determined as described previously (Coon et al. (2012), supra).

LS patient cells [3] = assay: Viability/toxicity assessment (cell counting, morphology, MTT); assay type: cell-based, Human; conditions: for toxicity (viability and stress-induced changes in morphology): LS cells after exposure to statins
Procedure: Cells were incubated with the indicated drugs for the specified times at different concentrations as described in low serum (0.1%) media to avoid substantial protein-mediated drug sequestration. In addition to cell counting post-treatment, a sample of cells seeded on fibronectin-coated coverslips was fixed and stained with fluorescein isothiocyanate (FITC)-phalloidin and DAPI (4′,6-diamidino-2-phenylindole) for cell morphology inspection. Viability was monitored by performing MTT (3-(4,5-dimethylthiazol-2-yl)-2,5-diphenyltetrazolium bromide) assays as follows: Following treatment of cells (in triplicates) with indicated drugs at different concentrations for specified times, media were aspirated and replaced with MTT solution (freshly prepared at 0.5 mg/ml in complete media) and incubated for 1.5 h. Additionally, a blank control with only MTT reagent containing no cells was also prepared. Following incubation, solution was aspirated and MTT was immediately solubilized using 1 mL DMSO (dimethylsulfoxide) (per well) by gentle pipetting. Absorbance values of solubilized MTT solution from the different wells were measured at 570 nm using a spectrophotometer.

[4] = current approved rapamycin treatments; cited from earlier work
[5] = test system: HK2 and HEK293T OCRL1 K.O. cells; assay: Cell spreading assay in kidney knock-out cells; assay type: cell-based, Human; conditions: HK2 and HEK293T OCRL1 K.O. vs wild-type
Procedure: Normal (GM07492) and LS primary dermal fibroblasts (GM01676 and GM03265) were obtained from the NIHGMS Human Genetic Cell Repository (Coriell Institute for Medical Research, Camden, NJ, USA). Cells were maintained in Dulbecco's Modified Eagle Medium (DMEM), streptomycin/penicillin, 2 mM L-glutamine and 15% fetal bovine serum (FBS) at 37° C. in a 5% CO2 incubator. When needed, cells were transferred to fibronectin-coated surfaces (plates or coverslips) prepared by incubation with 10 μg/mL fibronectin for 2 h at 37° C. Normal human proximal tubule epithelial (HK2) and human embryonic kidney epithelial 293T (HEK293T) cells obtained from ATCC were grown in DMEM, streptomycin/penicillin, 2 mM L-glutamine and 10% FBS at 37° C. in a 5% CO2 incubator. OCRL1^−/− (OCRL K.O) HK2 and HEK293T cells were prepared by GenScript, Inc., Piscataway, NJ, USA, and maintained under the same conditions as their normal counterparts. Characterization of these cell lines has been described before (Hsieh et al., PLoS One 10.1371/jounal.pone.0192635 (Feb. 14, 2018)).
Human dermal fibroblasts (12 h after seeding) were treated with the indicated drug (or vehicle) in 0.1% serum for the indicated time. […] At least 50 cells were quantified per experiment by tracing and measuring cell areas by using the magic wand tool in ImageJ software (National Institutes of Health (NIH), Bethesda, MD, USA).

Molecule: CCCC[C@@H](C=O)NC(=O)[C@H](CC(C)C)NC(=O)OCc1ccccc1 [RhoA activator, calpeptin]
- cell spreading of normal cells (Normal fibroblasts): displayed a “LS-like” cell spreading phenotype
- proportion of de-attaching cells (normal cells): increased proportion of de-attaching cells
- LS cell spreading phenotype (LS patient cells [1]): worsened the already impaired spreading ability of LS cells

Molecule: O=S(=O)(c1cccc2cnccc12)N1CCCNCC1 [fasudil]
- LS cell spreading phenotype (LS patient cells [1]): in contrast to the ROCK-inhibitor fasudil, the MLCK-inhibitor ML-7 was able to mitigate

Molecule: CNC(=O)Nc1ccc(-c2nc(N3CC4CCC(C3)O4)c3cnn(C4CCC5(CC4)OCCO5)c3n2)cc1 [WYE132]
- mTOR activation / phosphorylation (mTOR pathway in LS cells): able to decrease mTOR phosphorylation
- autolysosome deficiencies (fraction of cells displaying autolysosomes) (HK2 OCRL1 K.O. cells): can be rescued
- ciliogenesis / PC assembly defects in LS cells (LS patient cells [2]): rescue ciliogenesis defects in LS cells

Molecule: COCc1c(C(C)C)nc(C(C)C)c(/C=C/[C@@H](O)C[C@@H](O)CC(=O)O)c1-c1ccc(F)cc1 [cerivastatin]
- toxicity (viability and stress-induced changes in morphology) (LS patient cells [3]): substantially toxic

Molecule: O=S(=O)(c1cccc2c(I)cccc12)N1CCCNCC1 [ML-7]
- LS cell spreading phenotype (LS patient cells [1]): able to mitigate the cell spreading phenotype

Molecule: C[C@@H]1COCCN1c1cc(=O)n2c(n1)N(Cc1cncc(Cl)c1)[C@H](C(F)(F)F)CC2 [SAR405]
- mTOR activation / phosphorylation (mTOR pathway in LS cells): did not affect mTOR activation
- ciliogenesis / PC assembly defects in LS cells (LS patient cells [2]): had no effect on ciliogenesis by LS cells

Molecule: CO[C@H]1C[C@@H]2CC[C@@H](C)[C@@](O)(O2)C(=O)C(=O)N2CCCC[C@H]2C(=O)O[C@H]([C@H](C)C[C@@H]2CC[C@@H](O)[C@H](OC)C2)CC(=O)[C@H](C)/C=C(\C)[C@@H](O)[C@@H](OC)C(=O)[C@H](C)C[C@H](C)/C=C/C=C/C=C/1C [rapamycin]
- plasma levels [4]: 10 nM
- toxicity on LS cells (decrease in viability, MTT) (LS patient cells [3]; after 72 h-treatment): 10-15%

Molecule: C3 transferase [RhoA inhibitor]
- cell spreading phenotype in OCRL1 K.O. kidney cells [5]: confirmed
- cell spreading / membrane remodeling phenotype in cells from another LS patient (LS patient cells [1]; LS2 cells, FIG. 8A): confirmed
- LS cell spreading phenotype (LS patient cells [1]): ameliorated the cell spread phenotype

Molecule: O=C(O)C[C@H](O)C[C@H](O)/C=C/c1c(C2CC2)nc2ccccc2c1-c1ccc(F)cc1 [pitavastatin]
- LS cell spreading phenotype (LS patient cells [1]): mitigated to a certain extent the LS spreading phenotype
- ranking of statins: rescue effect over needed dose and toxicity (LS patient cells [1]; LS spreading defects): rosuvastatin>pitavastatin>>>simvastatin and others
- toxicity (viability and stress-induced changes in morphology) (LS patient cells [3]): substantially toxic

Molecule: CC(C)n1nc(-c2ccc3oc(N)nc3c2)c2c(N)ncnc21 [INK128]
- mTOR activation / phosphorylation (mTOR pathway in LS cells): able to decrease mTOR phosphorylation
- ciliogenesis / PC assembly defects in LS cells (LS patient cells [2]): rescue ciliogenesis defects in LS cells

Molecule: CSCC[C@H](NC(=O)c1ccc(NC[C@@H](N)CS)cc1-c1ccccc1)C(=O)O [farnesylation inhibitor]
- LS cell spreading phenotype (LS patient cells [1]): rescue the cell spreading phenotype of LS patient cells

Molecule: CC(C)c1c(C(=O)Nc2ccccc2)c(-c2ccccc2)c(-c2ccc(F)cc2)n1CC[C@@H](O)C[C@@H](O)CC(=O)O [atorvastatin]
- LS cell spreading phenotype (LS patient cells [1]): mitigated to a certain extent the LS spreading phenotype
